Source: patent US20190274937A1, “MICROBIOME-SAFE COSMETIC CLEANING COMPOSITIONS” (Yun NV, priority 2016, published 2019)

Key:
lactobacillus = experiment: More detailed screening of the products for ingredients responsible for growth retardation (data not shown); type: cell-based
Description: A more detailed screening of the products (data not shown) led to a few common ingredients found in most shower cosmetics that can be held responsible for the growth retardation in FIG. 1.0. […] As strong and fast working preservatives; phenoxyethanol, parabens, bronopol, sulphites/sulphates, benzylalcohol and others were identified. Most allergens in perfume can also be identified as being harmful for bacteria.

Spread plating = type: cell-based; details: surfactants of negative control P3
Procedure: The negative control (P3) has no growth after incubation in MRS. It contains the anionic Sodium Laureth sulphate (14% final) and cocamidopropyl betaine, some of the most commonly used surfactants in present-day soaps.

Row | Substance | effect on bacteria / the present lactobacillus (lactobacillus) | bactericidal effect (Spread plating)
1 | Sodium laureth sulphate | very strong bactericidal effect | bactericidal effect
2 | cocamidopropyl betaine | big negative influence | bactericidal effect
